According to patent US9593122B2, “Substituted pyrazolylpyrazole derivative and use of same as herbicide” (KYOYU AGRI CO., LTD., priority 2013, dated 2017):

Tests used:
Format in all cases: in vivo
Scirpus juncoides = test: Paddy herbicidal activity test; details: irrigated paddy pot, 30 days
Method in brief: (§1)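 Flooded paddy-soil pots (3 cm water) were sown with Echinochloa, Monochoria and Scirpus, and rice at the 2.0-leaf stage was transplanted. Diluted wettable powder was dripped in per are at weed 3.5-leaf stage. After 30 days in a greenhouse (~30 °C), growth inhibition versus untreated plants was scored on an 11-level scale.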

Echinochloa crus-galli = test: Paddy herbicidal activity test; details: irrigated paddy pot, treated at 3.5 leaf stage of Echinochloa crus-galli, 30 days
Method in brief: as §1

Monochoria vaginalis = test: Paddy herbicidal activity test; details: irrigated paddy pot, 30 days
Method in brief: as §1

Chenopodium album [1] = test: Weed foliar treatment test; details: foliar spray, 3 weeks
Experimental: (§2) Soil was filled into a 1/6000 are pot followed by seeding with Digitaria ciliaris, Chenopodium album and Amaranthus retroflexus, covering with soil, and cultivating in a glass greenhouse at an average atmospheric temperature of 25° C.
(§3) Wettable powder of Target Compound (I) shown in Table 1 prepared in compliance with the preparation examples were diluted with water to the prescribed amount of chemical and uniformly sprayed onto the weeds using 15 liters of sprayed water per are when Digitaria ciliaris had grown to the 1.0 to 2.0 leaf stage.
(§4) After treating for 3 weeks in a glass greenhouse at an average atmospheric temperature of 25° C., the herbicidal efficacy thereof was investigated.
(§5) Evaluation of herbicidal efficacy was carried out in the same manner as the above-mentioned Test Example 1.

Amaranthus retroflexus [2] = test: Weed foliar treatment test; details: foliar spray, 3 weeks
Experimental: as §2, §3, §4, §5

Digitaria ciliaris [3] = test: Weed foliar treatment test; details: foliar spray at 1.0 to 2.0 leaf stage of Digitaria ciliaris, 3 weeks
Experimental: as §2, §3, §4, §5

Chenopodium album [4] = test: Farming soil treatment test; details: soil surface spray prior to weed growth, 30 days
Experimental: (§6) Field soil was filled into a 1/6000 are pot followed by seeding with Digitaria ciliaris, Chenopodium album and Amaranthus retroflexus and covering with soil.
(§7) Wettable powder of compounds of formula (I) shown in Table 1 prepared in compliance with the preparation examples were diluted with water to the prescribed amount of chemical and uniformly sprayed onto each soil surface layer using 10 liters of sprayed water per are prior to weed growth following seeding.
(§8) After treating for 30 days in a glass greenhouse at an average atmospheric temperature of 30° C., the herbicidal efficacy thereof was investigated.
(§9) Evaluation of herbicidal efficacy is carried out in the same manner as the above-mentioned Test Example 1.

Amaranthus retroflexus [5] = test: Farming soil treatment test; details: soil surface spray prior to weed growth, 30 days
Experimental: as §6, §7, §8, §9

Digitaria ciliaris [6] = test: Farming soil treatment test; details: soil surface spray prior to weed growth, 30 days
Experimental: as §6, §7, §8, §9

Rice plants = test: Paddy herbicidal activity test, phytotoxicity to transplanted rice; details: rice transplanted at 2.0 leaf stage, 30 days
Experimental: Rice paddy soil was filled into a 1/10000 are pot followed by the addition of suitable amounts of water and chemical fertilizer, kneading, seeding with Echinochloa crus-galli, Monochoria vaginalis and Scirpus juncoides and maintaining in an irrigated state at a water depth of 3 cm.
Wettable powder of Target Compound (I) shown in Table 1 prepared in compliance with the preparation examples were diluted with a suitable amount of water, rice plants in the 2.0 leaf stage were transplanted during 3.5 leaf stage of Echinochloa crus-galli, and treated by dropping in chemical in the prescribed amount per are using a pipette.
as §8
Evaluation of herbicidal efficacy was carried out by comparing growth inhibition rate (%) with an untreated group, while evaluation of phytotoxicity was carried out by comparing growth inhibition rate (%) with the state of a complete eradication group, and were evaluated at 11 levels indicated below.

| SMILES | Scirpus juncoides herbicidal efficacy (growth inhibition level) (Scirpus juncoides; 1g a.i./10a) | Scirpus juncoides herbicidal efficacy (growth inhibition level) (Scirpus juncoides; 5g a.i./10a) | Echinochloa crus-galli herbicidal efficacy (growth inhibition level) (Echinochloa crus-galli; 1g a.i./10a) | Echinochloa crus-galli herbicidal efficacy (growth inhibition level) (Echinochloa crus-galli; 5g a.i./10a) | Monochoria vaginalis herbicidal efficacy (growth inhibition level) (Monochoria vaginalis; 1g a.i./10a) | Monochoria vaginalis herbicidal efficacy (growth inhibition level) (Monochoria vaginalis; 5g a.i./10a) | Chenopodium album herbicidal efficacy (growth inhibition level) (Chenopodium album [1]; 5g a.i./10a) | Chenopodium album herbicidal efficacy (growth inhibition level) (Chenopodium album [1]; 10g a.i./10a) | Amaranthus retroflexus herbicidal efficacy (growth inhibition level) (Amaranthus retroflexus [2]; 5g a.i./10a) | Amaranthus retroflexus herbicidal efficacy (growth inhibition level) (Amaranthus retroflexus [2]; 10g a.i./10a) | Digitaria ciliaris herbicidal efficacy (growth inhibition level) (Digitaria ciliaris [3]; 5g a.i./10a) | Digitaria ciliaris herbicidal efficacy (growth inhibition level) (Digitaria ciliaris [3]; 10g a.i./10a) | Chenopodium album herbicidal efficacy (growth inhibition level) (Chenopodium album [4]; 5g a.i./10a) | Chenopodium album herbicidal efficacy (growth inhibition level) (Chenopodium album [4]; 10g a.i./10a) | Amaranthus retroflexus herbicidal efficacy (growth inhibition level) (Amaranthus retroflexus [5]; 5g a.i./10a) | Amaranthus retroflexus herbicidal efficacy (growth inhibition level) (Amaranthus retroflexus [5]; 10g a.i./10a) | Digitaria ciliaris herbicidal efficacy (growth inhibition level) (Digitaria ciliaris [6]; 5g a.i./10a) | Digitaria ciliaris herbicidal efficacy (growth inhibition level) (Digitaria ciliaris [6]; 10g a.i./10a) | Rice plants phytotoxicity (growth inhibition level) (Rice plants; 1g a.i./10a) | Rice plants phytotoxicity (growth inhibition level) (Rice plants; 5g a.i./10a) |
| --- | --- | --- | --- | --- | --- | --- | --- | --- | --- | --- | --- | --- | --- | --- | --- | --- | --- | --- | --- | --- |
| C=CCNc1c(C#N)cnn1-c1nn2c(c1Cl)CCCC2 [Control agent 4.59, reference compound] | 2 (2: 20% to less than 30%) | 4 (4: 40% to less than 50%) | 2 (2: 20% to less than 30%) | 5 (5: 50% to less than 60%) | 2 (2: 20% to less than 30%) | 4 (4: 40% to less than 50%) | 6 (6: 60% to less than 70%) | 7 (7: 70% to less than 80%) | 6 (6: 60% to less than 70%) | 7 (7: 70% to less than 80%) | 4 (4: 40% to less than 50%) | 6 (6: 60% to less than 70%) | 5 (5: 50% to less than 60%) | 6 (6: 60% to less than 70%) | 5 (5: 50% to less than 60%) | 6 (6: 60% to less than 70%) | 5 (5: 50% to less than 60%) | 6 (6: 60% to less than 70%) | 1 (1: 10% to less than 20%) | 2 (2: 20% to less than 30%) |
| C#CCNc1c(C#N)cnn1-c1nn2c(c1Cl)CCCC2 [Control agent 4.85, 4.156, reference compound] | 0 (0 (exponent): 0% to less than 10% (growth inhibition rate)) | 1 (1: 10% to less than 20%) | 2 (2: 20% to less than 30%) | 3 (3: 30% to less than 40%) | 1 (1: 10% to less than 20%) | 3 (3: 30% to less than 40%) | 5 (5: 50% to less than 60%) | 6 (6: 60% to less than 70%) | 4 (4: 40% to less than 50%) | 6 (6: 60% to less than 70%) | 3 (3: 30% to less than 40%) | 5 (5: 50% to less than 60%) | 4 (4: 40% to less than 50%) | 5 (5: 50% to less than 60%) | 3 (3: 30% to less than 40%) | 6 (6: 60% to less than 70%) | 3 (3: 30% to less than 40%) | 4 (4: 40% to less than 50%) | 2 (2: 20% to less than 30%) | 2 (2: 20% to less than 30%) |
| CC=CCNc1c(C#N)cnn1-c1nn2c(c1Cl)CCCC2 (mixture of isomers) [Compound 12] | 8 (8: 80% to less than 90%) | 9 (9: 90% to less than 100%) | 9 (9: 90% to less than 100%) | 10 (10: 100%) | 9 (9: 90% to less than 100%) | 10 (10: 100%) | 10 (10: 100%) | 10 (10: 100%) | 10 (10: 100%) | 10 (10: 100%) | 10 (10: 100%) | 10 (10: 100%) | 10 (10: 100%) | 10 (10: 100%) | 10 (10: 100%) | 10 (10: 100%) | 10 (10: 100%) | 10 (10: 100%) | – | – |
| N#Cc1cnn(-c2nn3c(c2Cl)CCCC3)c1N(C/C=C\Cl)C(=O)C(F)(F)F [Compound 21] | 8 (8: 80% to less than 90%) | 10 (10: 100%) | 9 (9: 90% to less than 100%) | 9 (9: 90% to less than 100%) | 9 (9: 90% to less than 100%) | 9 (9: 90% to less than 100%) | 10 (10: 100%) | 10 (10: 100%) | 10 (10: 100%) | 10 (10: 100%) | 10 (10: 100%) | 10 (10: 100%) | 10 (10: 100%) | 10 (10: 100%) | 10 (10: 100%) | 10 (10: 100%) | 10 (10: 100%) | 10 (10: 100%) | – | – |
| CC=CCN(C(=O)C(F)(F)F)c1c(C#N)cnn1-c1nn2c(c1Cl)CCCC2 (mixture of isomers) [Compound 24] | 8 (8: 80% to less than 90%) | 9 (9: 90% to less than 100%) | 9 (9: 90% to less than 100%) | 10 (10: 100%) | 8 (8: 80% to less than 90%) | 9 (9: 90% to less than 100%) | 10 (10: 100%) | 10 (10: 100%) | 10 (10: 100%) | 10 (10: 100%) | 10 (10: 100%) | 10 (10: 100%) | 10 (10: 100%) | 10 (10: 100%) | 10 (10: 100%) | 10 (10: 100%) | 10 (10: 100%) | 10 (10: 100%) | – | – |
